Source: publication PMC9138090, “Study on the Neuroprotective, Radical-Scavenging and MAO-B Inhibiting Properties of New Benzimidazole Arylhydrazones as Potential Multi-Target Drugs for the Treatment of Parkinson’s Disease” (Antioxidants, 2022)
“Also recorded” adds a separate entry of the source.

Legend:
[1] = MTT cytotoxicity on SH-SY5Y cells; assay type: cell-based, human; conditions: human, SH-SY5Y neuroblastoma cells, MTT test, 24 h incubation; read-out: IC50, in vitro cytotoxicity on SH-SY5Y cells
Method: (§1) Human neuroblastoma cell line SH-SY5Y was obtained from the European Collection of Cell Cultures (ECACC, Salisbury, UK). The cells were maintained in 75 cm^2 flasks at 37 °C in a humidified atmosphere with 5% CO2 and cultured in RPMI 1640 medium, supplemented with 10% fetal bovine serum and 2 mM L-glutamine.
(§2) MTT (Sigma-Aldrich Chemie GmbH, Schnelldorf, Germany) assay is based on interaction between tetrazolium dye 3-(4,5-dimethylthiazol-2-yl)-2,5-diphenyltetrazolium bromide and succinic dehydrogenase in the living cells’ mitochondria. In this reaction, the formed purple formazan crystals indicate the presence of viable cells. SH-SY5Y cells were seeded in 96-well microplates at a density 2.5 × 10^4 cells/well and allowed to attach to the well surface at 37 °C in a humidified atmosphere with 5% CO2 (24 h). Different concentrations of compounds ([…]) were added to cells and incubated for 24 h. For each concentration, a set of at least 8 wells were used. After the treatment, the solution in each well was substituted with MTT (3-(4,5-dimethylthiazol-2-yl)-2,5-diphenyltetrazolium bromide) solution (0.5 mg/mL in culture medium). The microplates were further incubated for 3 h at 37 °C and the obtained formazan crystals were dissolved by 100 µL/well of DMSO. The absorbance was measured in a multiplate reader Synergy 2 (BioTek Instruments, Inc, Highland Park, Winooski, VT, USA) at 570 nm (690 nm for background absorbance).
(§3) An important step in the development of new pharmacologically active compounds is the establishment of their safety profile. An in vitro toxicity evaluation was carried out on the neuroblastoma cell line SH-SY5Y, which is a well-established model in neuroscience. The neuroblastoma SH-SY5Y are human derived cells with relatively homogeneous neuroblast-like structure. The cells express a dopamine-β-hydroxylase and tyrosine hydroxylase enzyme activity, specific types of human proteins and protein isoforms. The possible neurotoxic effects of the potential drug candidates were measured by cell viability assay (MTT-test). The IC50 values were used as a robust parameter for comparison. The test compounds were dissolved in DMSO and serially diluted in cell culture medium to achieve final concentrations ranging from 1 to 500 µM; the culture medium containing DMSO in the corresponding concentration was used as untreated controls. A concentration dependent effect on cell viability was observed after 24 h incubation.

SH-SY5Y cells = assay: MTT cytotoxicity on SH-SY5Y cells; assay type: cell-based, human; conditions: MTT test, 24 h incubation; read-out: IC50, in vitro cytotoxicity on SH-SY5Y cells
Method: as §1, §2, §3

[2] = target: T1, human recombinant MAO-B (hMAO-B) enzyme (Homo sapiens, UniProt P27338); assay: hMAO-B activity, Amplex UltraRed fluorometric method; assay type: biochemical; conditions: 1 µM
T1 construct: purchased Invitrogen, USA
T1 sequence (P27338 1-520): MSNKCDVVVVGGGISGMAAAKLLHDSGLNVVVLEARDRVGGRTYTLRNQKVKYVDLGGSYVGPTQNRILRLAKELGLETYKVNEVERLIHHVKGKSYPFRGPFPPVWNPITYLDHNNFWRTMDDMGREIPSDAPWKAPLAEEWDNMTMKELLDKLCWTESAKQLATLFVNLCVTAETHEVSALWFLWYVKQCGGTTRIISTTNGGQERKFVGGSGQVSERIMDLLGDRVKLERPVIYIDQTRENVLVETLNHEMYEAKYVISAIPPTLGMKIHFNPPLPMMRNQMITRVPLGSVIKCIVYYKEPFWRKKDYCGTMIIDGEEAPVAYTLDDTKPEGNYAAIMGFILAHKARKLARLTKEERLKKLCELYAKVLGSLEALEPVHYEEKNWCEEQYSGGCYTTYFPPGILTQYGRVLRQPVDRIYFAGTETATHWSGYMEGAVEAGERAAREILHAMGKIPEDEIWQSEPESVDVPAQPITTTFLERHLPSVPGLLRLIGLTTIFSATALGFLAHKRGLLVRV
Method: The effects of the test compounds on human recombinant MAO-B (hMAO-B) enzyme were studied by the Amplex UltraRed reagent (Sigma-Aldrich Chemie GmbH) fluorometric method with small modifications. The working solutions of the compounds, reagents, hMAO-B, and reaction buffers were prepared according to the producer’s instructions. The tyramine hydrochloride was used as a substrate. The reaction mixture contained a stock solution of Amplex Red (10 mM in dimethyl sulfoxide), the reaction buffer (0.05 M sodium phosphate) at pH 7.4, and the storage solution of horseradish peroxidase (10 U/mL). There were pure MAO-B working solutions in the reaction buffer and MAO-B working solution containing hydrogen peroxide as controls. The final concentration of the test compounds in the well was 1 μM. The compounds together with hMAO-B were embedded in a 96-well plate (8 wells for each compound), and then the plate was incubated for 30 min (dark, at 37 °C). Thereafter, the reaction was initiated by 50 μL Mix Solution: Amplex®Red reagent, horseradish peroxidase, and tyramine as an enzyme substrate in the reaction buffer. The fluorescence was measured every 30 min at 0, 30, 60, 90, 120, and 150 min), in dark, while shaking the reaction mixture at constant temperature of 37 °C. The fluorimetric measurements were assessed using a Synergy 2 Microplate Reader.
Monoamine oxidase B catalyzes dopamine metabolism and oxidation leading to the formation of reactive oxygen species and reactive quinones, which provoke dopamine neurotoxicity and neurodegeneration. In the next experiments, the compounds showing the best safety profile and the most promising neuroprotective activity (3d, 3e, 3h, 3i, 3m, 3n, 3p) were evaluated for their potential inhibitory activity on hMAOB. Selegiline and rasagiline as potent MAO-B inhibitors were used as standard compounds for comparison.

Row | Compound | melting point | IC50 at 24 h [1] | IC50 (SH-SY5Y cells) | inhibitory effect on hMAOB activity (in words) [2]
1 | COc1ccc(C=NNC(=O)CCn2c(=S)n(CCC(=O)NN=Cc3ccc(OC)cc3O)c3ccccc32)c(O)c1 [3m, 3,3′-(2-Thioxo-1H-benzo[d]imidazole-1,3(2H)-diyl)bis(N′-(2-hydroxy-4-methoxybenzylidene)propanehydrazide)] | 247 to 249 °C | > 200 µM | 211 µM | statistically significant MAO-B inhibitory effects
2 | O=C(CCn1c(=S)n(CCC(=O)NN=Cc2ccc(O)cc2O)c2ccccc21)NN=Cc1ccc(O)cc1O [3i, 3,3′-(2-Thioxo-1H-benzo[d]imidazole-1,3(2H)-diyl)bis(N′-(2,4-dihydroxybenzylidene)propanehydrazide)] | 254 to 256 °C | > 250 µM | 301 µM | statistically significant MAO-B inhibitory effects
3 | O=C(CCn1c(=S)n(CCC(=O)NN=Cc2ccccc2O)c2ccccc21)NN=Cc1ccccc1O [3e, 3,3′-(2-Thioxo-1H-benzo[d]imidazole-1,3(2H)-diyl)bis(N′-(2-hydroxybenzylidene)propanehydrazide)] | 272 to 273 °C | > 200 µM | 235 µM | statistically significant MAO-B inhibitory effects
4 | O=C(CCn1c(=S)n(CCC(=O)NN=Cc2cccc(O)c2O)c2ccccc21)NN=Cc1cccc(O)c1O [3h, 3,3′-(2-Thioxo-1H-benzo[d]imidazole-1,3(2H)-diyl)bis(N′-(2,3-dihydroxybenzylidene)propanehydrazide)] | 246 to 248 °C | > 250 µM | 296 µM | statistically significant MAO-B inhibitory effects; also recorded: most potent with an hMAO-B inhibitory activity similar to selegiline and rasagiline
